Laboratory results from patent publication US7253286B2, “Nitrogen-containing aromatic derivatives” (Eisai Co., Ltd, priority 2000, dated 2007).

Legend:
[1] = tested on: Human Umbilical Vein Endothelial Cells (HUVECs); assay: Inhibition against sandwich tube formation by vascular endothelial cells in response to stimulation by VEGF; assay type: cell-based; conditions: HUVEC in collagen gel sandwich, stimulation by VEGF (25 ng/ml VEGF and 10 ng/ml EGF), 4th day, total tube length, read-out: IC50 (concentration required for 50% inhibition of tube formation)
Outline: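 HUVECs were sandwiched between collagen gel layers in serum-free medium with 25 ng/ml VEGF plus 10 ng/ml EGF, with test substance added above the gel at 37 °C. On day 4 tubes were MTT-stained and total tube length measured by image analysis. IC50 is the concentration halving tube length relative to no-compound wells.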

VEGFR2 = molecular target: T1, VEGFR2 (Homo sapiens, UniProt P35968); assay: Inhibition against VEGFR2 kinase (receptor tyrosine kinase activity, HTRF method); assay type: biochemical; conditions: His6-VEGFR2 cytoplasmic domain, biotin-poly(GT) substrate, ATP, 30° C. 10 minutes, read-out: IC50 (concentration required for 50% inhibition of VEGFR2 kinase activity)
T1 construct: coding for the cytoplasmic domain, beginning with lysine 791 and including the termination codon; made in house; host or cells: Sf9 insect cells (baculovirus, pFastBacHis)
T1 sequence (P35968 786-1356 limits assumed): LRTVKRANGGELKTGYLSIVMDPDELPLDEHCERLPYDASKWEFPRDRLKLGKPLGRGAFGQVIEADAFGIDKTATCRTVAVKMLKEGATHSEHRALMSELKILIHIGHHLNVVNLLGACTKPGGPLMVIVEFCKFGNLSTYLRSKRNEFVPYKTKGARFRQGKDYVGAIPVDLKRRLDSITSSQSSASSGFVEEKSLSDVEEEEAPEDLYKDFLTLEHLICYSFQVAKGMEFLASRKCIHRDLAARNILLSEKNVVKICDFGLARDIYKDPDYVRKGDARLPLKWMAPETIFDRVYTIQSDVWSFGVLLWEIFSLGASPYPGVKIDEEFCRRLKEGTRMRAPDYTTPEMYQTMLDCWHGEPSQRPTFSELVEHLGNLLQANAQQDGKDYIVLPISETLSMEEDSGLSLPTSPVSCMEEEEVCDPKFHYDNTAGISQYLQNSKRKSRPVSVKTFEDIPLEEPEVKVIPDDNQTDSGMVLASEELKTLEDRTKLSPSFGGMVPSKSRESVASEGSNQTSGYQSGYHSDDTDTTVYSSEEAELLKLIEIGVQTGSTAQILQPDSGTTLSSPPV
Outline: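 Construct: His6-tagged VEGFR2 cytoplasmic domain (from Lys791), expressed in Sf9 cells. Kinase step: biotin-poly(Glu4:Tyr1) substrate, ATP added as 10 μl of 4 μM, Hepes pH 7.4 with Mg2+/Mn2+, 30 °C for 10 min, EDTA stop. Phosphotyrosine product measured by HTRF.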

SMILES | IC50 [1] [nM] | IC50 (VEGFR2) [nM]
N#CCCCOc1cc2nccc(Oc3ccc(NC(=O)Nc4ccc(F)cc4F)c(F)c3)c2cc1C#N [Example 55, N-(4-(6-Cyano-7-(3-cyanopropoxy)-4-quinolyl)oxy-2-fluorophenyl)-N′-(2,4-difluorophenyl)urea] | 35 | 29
NC(=O)c1cc2c(Oc3ccc(NC(=O)NC4CC4)c(F)c3)ccnc2cc1OCCCN1CCOCC1 [Example 374, 4-(4-(Cyclopropylaminocarbonyl)amino-3-fluorophenoxy)-7-(3-(4-morpholino)propoxy)-6-quinolinecarboxamide] | 3 | 8.4
COc1cc2nccc(Oc3ccc(NC(=O)NC4CC4)c(Cl)c3)c2cc1C(=O)NCCS(C)(=O)=O [Example 404, N6-(2-(Methylsulfonyl)ethyl)-4-(3-chloro-4-(((cyclopropylamino)carbonyl)amino)phenoxy)-7-methoxy-6-quinolinecarboxamide] | 2.8 | 6.5
CCNC(=O)n1ccc2cc(Oc3ccnc4cc(OC)c(C(N)=O)cc34)ccc21 [Example 316, 6-Carbamoyl-4-(1-ethylcarbamoyl-1H-indol-5-yloxy)-7-methoxyquinoline] | 1 | 6.4
COCCOc1cc2nccc(Oc3ccc(NC(=O)Nc4ccc(F)cc4)c(F)c3)c2cc1C#N [Example 100, N-(4-(6-Cyano-7-(2-methoxyethoxy)-4-quinolyl)oxy-2-fluorophenyl)-N′-(4-fluorophenyl)urea] | 6.3 | 9.6
